Laboratory results as given in US20260092061A1, “COMPOUNDS FOR TARGETED PROTEIN DEGRADATION” (Amphista Therapeutics Limited, priority 2022, published 2026).
Where two headings read alike, the source gives them in different places.

How the values were obtained:
Format in all cases: cell-based
[1] = target: T1, BRD9 (Homo sapiens, UniProt Q9H8M2); assay: BRD9 degradation, HiBiT-BRD9 KI HEK293 (LgBiT) cells, NanoGlo Lytic Endpoint assay (Assay Protocol 1); conditions: for Dmax / Dmax at 1 µM: HEK293
T1 sequence (Q9H8M2 1-597): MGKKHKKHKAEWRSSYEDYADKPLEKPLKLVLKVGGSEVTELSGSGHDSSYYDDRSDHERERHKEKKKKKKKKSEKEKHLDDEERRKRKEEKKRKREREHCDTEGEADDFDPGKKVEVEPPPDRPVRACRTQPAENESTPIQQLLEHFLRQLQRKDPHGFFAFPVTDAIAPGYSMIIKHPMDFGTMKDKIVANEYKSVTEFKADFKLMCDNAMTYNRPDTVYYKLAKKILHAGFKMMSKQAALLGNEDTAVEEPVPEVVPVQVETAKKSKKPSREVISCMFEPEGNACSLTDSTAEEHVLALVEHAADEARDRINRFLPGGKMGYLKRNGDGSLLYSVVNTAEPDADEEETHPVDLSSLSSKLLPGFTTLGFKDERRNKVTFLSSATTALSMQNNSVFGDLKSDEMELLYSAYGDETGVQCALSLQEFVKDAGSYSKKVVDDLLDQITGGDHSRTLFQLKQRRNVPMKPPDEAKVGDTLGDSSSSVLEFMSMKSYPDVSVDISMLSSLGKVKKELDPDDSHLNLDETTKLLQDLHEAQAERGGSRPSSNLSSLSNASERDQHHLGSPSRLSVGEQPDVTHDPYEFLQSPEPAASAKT
How it was run: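 HiBiT-tagged BRD9 knock-in HEK293 (LgBiT) cells exposed to compounds for 6 h at 37 °C, 5% CO2. Residual BRD9 measured by HiBiT lytic luminescence. % BRD9 remaining normalised to DMSO-treated cells (high) and no-cell wells (low).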

[2] = target: T2, BRD4 (Homo sapiens, UniProt O60885); assay: BRD4 degradation, HiBiT-BRD4 HEK293 CRISPR CPM cells, NanoGlo Lytic Endpoint assay (Assay Protocol 1); conditions: for Dmax: HEK293, Table 5; for DC50: Table 5
T2 construct: HiBiT-BRD4 HEK293 CRISPR CPM (Promega CS302312); host or cells: HEK293, CRISPR-edited (HiBiT at the BRD4 locus)
Protocol: HiBiT-BRD9 KI HEK293 (LgBiT) Cells (Promega CS3023412) were seeded at 8000 cells per well (38 μL) in sterile white bottom 384 well plates (Invitrogen 164610 or Greiner 781080) and incubated overnight at 37° C. with 5% CO2. The next day, compounds were prepared at 1000× final concentration in DMSO and diluted 1:100 in media (DMEM PAN Biotech P04-03550+10% FBS ATCC 302025). 4 μL compound was added to each well of the cell plate and incubated for 6 h at 37° C. with 5% CO2 BRD9 expression was quantified using the NanoGlo Lytic Endpoint assay (Promega N3050). The lytic buffer was equilibrated to room temperature for 10-15 min before lytic reagent was prepared by adding substrate (1:50) and LgBit protein (1:100) in lytic buffer. 40 μL lytic reagent mix was added to each well of the cel plate and plates were centrifuged briefly at ˜50g. Plates were incubated with shaking (350 RPM) for 12-24 min before reading using the LUM plus module of a BMG Pherastar FSX. Data was analysed using Dotmatics software and % BRD9 remaining was calculated by normalisation to average data from high and low control wells (DMSO treated cels and no cells respectively).
[…] was determined in line with the procedure as outlined above for BRD9, HiBiT-BRD4 HEK293 CRISPR CPM (Promega CS302312) were seeded at 8000 CPW (36 uL) in sterile white bottom 384 well plates (Invitrogen 164610 or Greiner 781080) and incubated overnight at 37° C. with 5% CO2.

[3] = target: T2, BRD4; assay: as above; conditions: HEK293; Table 3; assay 1; 1 μM compound at 5 h of treatment
[4] = target: T1, BRD9; assay: BRD9 degradation, HiBiT-BRD9 KI HEK293 (LgBiT) cells, NanoGlo Lytic Endpoint assay (Assay Protocol 1); conditions: Table 3; assay 1; 5 h of treatment
[5] = Table 4, BRD9 degradation, determined according to Assay Protocol 1, read-out: Dmax^1
[6] = Table 5, assay protocol 1, read-out: BRD9 Dmax (%)
[7] = Table 4, BRD9 degradation, determined according to Assay Protocol 1, read-out: DC50^1
[8] = Table 5, assay protocol 1, read-out: BRD9 DC50
[9] = Table 2, BRD9 degradation, Assay Protocol 1, 1 μM compound at 6 h of treatment, read-out: Assay 1 Dmax
[10] = Table 3, assay 1, 1 μM compound at 5 h of treatment, read-out: BRD9 Dmax (%)
[11] = Table 2, BRD9 degradation, Assay Protocol 1, 6 h of treatment, read-out: Assay 1 DC50

Row | Dmax [1, 5] | Dmax [1, 6] | DC50 [1, 7] | DC50 [1, 8] | Dmax [2] | DC50 [2] | Dmax at 1 µM [1, 9] | Dmax at 1 µM [1, 10] | DC50 [1, 11] | Dmax [3] | DC50 [4] | Dmax [1, 10] | SMILES
1 | > 70% | 70 to 75% | < 25 nM | 10 to 25 nM | > 75% | 25 to 1000 nM | – | – | – | – | – | – | COc1cc(-c2cn(C)c(=O)c(C)c2C)cc(OC)c1CN1CC2CC1CN2C(=O)/C(C#N)=C/C(C)(C)C (mixture of isomers) [BRD9b]
2 | 50 to 70% | 40 to 70% | 25 to 200 nM | 25 to 1000 nM | 40 to 70% | > 1000 nM | – | – | – | – | – | – | COc1cc(-c2cn(C)c(=O)c(C)c2C)cc(OC)c1CN1CC2CC1CN2C(=O)/C(C#N)=C/c1nccs1 (mixture of isomers) [BRD9i, (E/Z)-2-(5-(2,6-dimethoxy-4-(1,4,5-trimethyl-6-oxo-1,6-dihydropyridin-3-yl)benzyl)-2,5-diazabicyclo[2.2.1]heptane-2-carbonyl)-3-(thiazol-2-yl)acrylonitrile]
3 | – | – | – | – | – | – | 70 to 75% | 70 to 75% | < 1.25 nM | < 25% | < 1.25 nM | – | COc1cc(-c2cn(C)c(=O)c(C)c2C)cc(OC)c1CN1CCN(Cc2cccc3c2CCN(C(=O)/C(C#N)=C/c2nccs2)C3C)CC1 (mixture of isomers) [Compound A4, (E/Z)-2-(5-((4-(2,6-dimethoxy-4-(1,4,5-trimethyl-6-oxo-1,6-dihydropyridin-3-yl)benzyl)piperazin-1-yl)methyl)-1-methyl-1,2,3,4-tetrahydroisoquinoline-2-carbonyl)-3-(thiazol-2-yl)acrylonitrile]
4 | – | – | – | – | – | – | 40 to 70% | – | < 1.25 nM | < 25% | < 1.25 nM | 40 to 70% | COc1cc(-c2cn(C)c(=O)c3cnccc23)cc(OC)c1CN1CCN(Cc2cccc3c2CCN(C(=O)/C(C#N)=C\c2ncc(C)s2)C3C)CC1 (mixture of isomers) [Compound A10, (E/Z)-2-(5-((4-(2,6-dimethoxy-4-(2-methyl-1-oxo-1,2-dihydro-2,7-naphthyridin-4-yl)benzyl)piperazin-1-yl)methyl)-1-methyl-1,2,3,4-tetrahydroisoquinoline-2-carbonyl)-3-(5-methylthiazol-2-yl)acrylonitrile]
5 | – | – | – | – | – | – | 70 to 75% | 70 to 75% | 1.25 to 10 nM | < 25% | 1.25 to 10 nM | – | COc1cc(-c2cn(C)c(=O)c(C)c2C)cc(OC)c1CN1CCN(Cc2cccc3c2CCN(C(=O)/C(C#N)=C/c2cccc(Br)n2)C3C)CC1 (mixture of isomers) [Compound A16, (E/Z)-3-(6-bromopyridin-2-yl)-2-(5-((4-(2,6-dimethoxy-4-(1,4,5-trimethyl-6-oxo-1,6-dihydropyridin-3-yl)benzyl)piperazin-1-yl)methyl)-1-methyl-1,2,3,4-tetrahydroisoquinoline-2-carbonyl) acrylonitrile]
6 | – | – | – | – | – | – | > 75% | > 75% | < 1.25 nM | < 25% | < 1.25 nM | – | COc1cc(-c2cn(C)c(=O)c3cnccc23)cc(OC)c1CN(C)Cc1cccc2c1CCN(C(=O)/C(C#N)=C/c1cccc(Br)n1)C2C (mixture of isomers) [Compound A50]
7 | – | – | – | – | – | – | > 75% | > 75% | 1.25 to 10 nM | < 25% | 1.25 to 10 nM | – | COc1cc(-c2cn(C)c(=O)c(C)c2C)cc(OC)c1CN1CCC(Oc2cccc3c2CCN(C(=O)/C(C#N)=C/c2cccc(Br)n2)C3C)CC1 (mixture of isomers) [Compound A68, (E/Z)-3-(6-bromopyridin-2-yl)-2-(5-((1-(2,6-dimethoxy-4-(1,4,5-trimethyl-6-oxo-1,6-dihydropyridin-3-yl)benzyl)piperidin-4-yl)oxy)-1-methyl-1,2,3,4-tetrahydroisoquinoline-2-carbonyl)acrylonitrile]
8 | 50 to 70% | 40 to 70% | > 200 nM | 25 to 1000 nM | > 75% | 25 to 1000 nM | – | – | – | – | – | – | COc1cc(-c2cn(C)c(=O)c(C)c2C)cc(OC)c1CN1CCN(C(=O)/C(C#N)=C/C(C)(C)C)CC1 [BRD9a, (E/Z)-2-(4-(2,6-dimethoxy-4-(1,4,5-trimethyl-6-oxo-1,6-dihydropyridin-3-yl)benzyl)piperazine-1-carbonyl)-4,4-dimethylpent-2-enenitrile]
9 | 30 to 50% | – | 25 to 200 nM | – | 25 to 40% | > 1000 nM | – | – | – | – | – | – | COc1cc(-c2cn(C)c(=O)c(C)c2C)cc(OC)c1CN(C)C(=O)/C(C#N)=C/C(C)(C)C [BRD9ac, (E/Z)-2-cyano-N-(2,6-dimethoxy-4-(1,4,5-trimethyl-6-oxo-1,6-dihydropyridin-3-yl)benzyl)-N,4,4-trimethylpent-2-enamide]
10 | > 70% | – | < 25 nM | – | > 75% | 25 to 1000 nM | – | – | – | – | – | – | COc1cc(-c2cn(C)c(=O)c(C)c2C)cc(OC)c1CN1CCCN(C(=O)/C(C#N)=C/C(C)(C)C)CC1 [BRD9c, (E/Z)-2-(4-(2,6-dimethoxy-4-(1,4,5-trimethyl-6-oxo-1,6-dihydropyridin-3-yl)benzyl)-1,4-diazepane-1-carbonyl)-4,4-dimethylpent-2-enenitrile]
11 | > 70% | 70 to 75% | 25 to 200 nM | 10 to 25 nM | < 25% | > 1000 nM | – | – | – | – | – | – | COc1cc(-c2cn(C)c(=O)c(C)c2C)cc(OC)c1CN(C)C1CCN(C(=O)/C(C#N)=C/C(C)(C)C)CC1 [BRD9d, (E/Z)-2-(4-((2,6-dimethoxy-4-(1,4,5-trimethyl-6-oxo-1,6-dihydropyridin-3-yl)benzyl)(methyl)amino)piperidine-1-carbonyl)-4,4-dimethylpent-2-enenitrile]
12 | – | – | > 200 nM | – | > 75% | 25 to 1000 nM | – | – | – | – | – | – | COc1cc(-c2cn(C)c(=O)c(C)c2C)cc(OC)c1CN1CCN(C(=O)/C(C#N)=C/C(C)(C)C)C2(CC2)C1 [BRD9e, (E/Z)-2-(7-(2,6-dimethoxy-4-(1,4,5-trimethyl-6-oxo-1,6-dihydropyridin-3-yl)benzyl)-4,7-diazaspiro[2,5]octane-4-carbonyl)-4,4-dimethylpent-2-enenitrile]
13 | > 70% | > 75% | < 25 nM | < 1.25 nM | 40 to 70% | 25 to 1000 nM | – | – | – | – | – | – | COc1cc(-c2cn(C)c(=O)c(C)c2C)cc(OC)c1CN1CCN(C(=O)/C(C#N)=C/c2cccc(Br)n2)CC1 [BRD9h, (E/Z)-3-(6-bromopyridin-2-yl)-2-(4-(2,6-dimethoxy-4-(1,4,5-trimethyl-6-oxo-1,6-dihydropyridin-3-yl)benzyl)piperazine-1-carbonyl)acrylonitrile]

Row | SMILES | Dmax [1, 5] | Dmax [1, 6] | DC50 [1, 7] | DC50 [1, 8] | Dmax [2] | DC50 [2] | Dmax at 1 µM [1, 9] | Dmax at 1 µM [1, 10] | DC50 [1, 11] | Dmax [3] | DC50 [4] | Dmax [1, 10]
14 | COc1cc(-c2cn(C)c(=O)c(C)c2C)cc(OC)c1CN1C2CC1CN(C(=O)/C(C#N)=C/c1cccc(Br)n1)C2 (mixture of isomers) [BRD9o, (E/Z)-3-(6-bromopyridin-2-yl)-2-(6-(2,6-dimethoxy-4-(1,4,5-trimethyl-6-oxo-1,6-dihydropyridin-3-yl)benzyl)-3,6-diazabicyclo[3.1.1]heptane-3-carbonyl)acrylonitrile] | > 70% | > 75% | – | 10 to 25 nM | 25 to 40% | > 1000 nM | – | – | – | – | – | –
